Measured values from paper PMC3534098 (PLoS ONE, 2012).

Tested on: M. bovis BCG resistant mutants
Assay type: cell-based, Mycobacterium bovis BCG

Compound | viability of M. bovis BCG mutants raised against other IP family members
Cc1ccc2nc(C)c(C(=O)NCc3cccs3)n2c1 [IP 1] | viable
Cc1ccc2nc(C)c(C(=O)NCc3ccc(C(F)(F)F)cc3)n2c1 [IP 3, 2,6-Dimethyl-N-(4-(trifluoromethyl)benzyl)imidazo[1,2-a]pyridine-3-carboxamide] | viable
Cc1ccc2nc(C)c(C(=O)NCc3ccc(Cl)nc3)n2c1 [IP 4, N-((6-Chloropyridin-3-yl)methyl)-2,6-dimethylimidazo[1,2-a]pyridine-3-carboxamide] | viable
